Source: ChEMBL document CHEMBL1136688, “Synthesis and SAR of aminoalkoxy-biaryl-4-carboxamides: novel and selective histamine H3 receptor antagonists” (Bioorg Med Chem Lett, 2003)

Tests used:
[1] = target: Sodium-dependent dopamine transporter (Homo sapiens, UniProt Q01959); assay: Binding affinity towards human UPTK-DA transporter
[2] = target: Histamine H3 receptor (Rattus norvegicus) (UniProt Q9QYN8); settings: Brain
[3] = Plasma clearance after oral administration (2.5 mg/kg) in dog was determined; assay type: ADME, organism-based, Canis lupus familiaris; settings: read-out: Clp (converted)
[4] = target: T1, D(4) dopamine receptor (Homo sapiens, UniProt P21917); assay: Binding affinity towards human D4.2 receptor
T1 sequence (P21917 whole entry): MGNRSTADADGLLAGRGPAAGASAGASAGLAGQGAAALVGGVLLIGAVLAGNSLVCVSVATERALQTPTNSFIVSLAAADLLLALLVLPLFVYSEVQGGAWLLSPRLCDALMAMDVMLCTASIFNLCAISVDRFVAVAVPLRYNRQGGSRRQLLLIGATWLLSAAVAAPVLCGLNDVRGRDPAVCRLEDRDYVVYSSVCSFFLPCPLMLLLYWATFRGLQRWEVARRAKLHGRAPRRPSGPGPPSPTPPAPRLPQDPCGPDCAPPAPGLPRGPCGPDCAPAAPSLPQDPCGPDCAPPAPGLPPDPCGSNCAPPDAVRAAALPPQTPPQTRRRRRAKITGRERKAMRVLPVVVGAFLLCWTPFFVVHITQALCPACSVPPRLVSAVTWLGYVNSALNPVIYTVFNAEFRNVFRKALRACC

[5] = Volume distribution after oral administration (2.5 mg/kg) in monkey was determined; assay type: ADME, organism-based; settings: cercopithecidae, in vivo
[6] = target: Sodium-dependent serotonin transporter (Homo sapiens, UniProt P31645); assay: Binding affinity towards human UPTK-Serotonin transporter
Sequence of Sodium-dependent serotonin transporter (P31645 whole entry): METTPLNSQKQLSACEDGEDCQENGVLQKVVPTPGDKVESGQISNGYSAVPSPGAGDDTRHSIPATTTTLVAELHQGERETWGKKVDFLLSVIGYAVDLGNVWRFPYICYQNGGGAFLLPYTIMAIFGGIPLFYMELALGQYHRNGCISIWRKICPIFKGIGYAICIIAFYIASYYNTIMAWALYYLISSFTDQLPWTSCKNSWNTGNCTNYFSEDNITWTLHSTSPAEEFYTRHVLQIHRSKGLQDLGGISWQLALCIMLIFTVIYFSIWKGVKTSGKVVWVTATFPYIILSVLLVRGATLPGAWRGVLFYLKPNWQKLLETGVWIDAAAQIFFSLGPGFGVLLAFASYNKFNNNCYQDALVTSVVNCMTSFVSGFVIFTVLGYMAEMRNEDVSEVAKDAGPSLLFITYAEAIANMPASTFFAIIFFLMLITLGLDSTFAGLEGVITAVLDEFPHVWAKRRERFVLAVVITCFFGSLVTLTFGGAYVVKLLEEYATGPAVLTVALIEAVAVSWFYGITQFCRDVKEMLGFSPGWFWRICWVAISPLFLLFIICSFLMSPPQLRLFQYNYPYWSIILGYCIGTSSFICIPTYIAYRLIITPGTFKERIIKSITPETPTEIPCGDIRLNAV

[7] = target: T2, Muscarinic acetylcholine receptor M2 (Homo sapiens, UniProt P08172); assay: Binding affinity towards human muscarinic M2 receptor
T2 sequence (P08172 whole entry): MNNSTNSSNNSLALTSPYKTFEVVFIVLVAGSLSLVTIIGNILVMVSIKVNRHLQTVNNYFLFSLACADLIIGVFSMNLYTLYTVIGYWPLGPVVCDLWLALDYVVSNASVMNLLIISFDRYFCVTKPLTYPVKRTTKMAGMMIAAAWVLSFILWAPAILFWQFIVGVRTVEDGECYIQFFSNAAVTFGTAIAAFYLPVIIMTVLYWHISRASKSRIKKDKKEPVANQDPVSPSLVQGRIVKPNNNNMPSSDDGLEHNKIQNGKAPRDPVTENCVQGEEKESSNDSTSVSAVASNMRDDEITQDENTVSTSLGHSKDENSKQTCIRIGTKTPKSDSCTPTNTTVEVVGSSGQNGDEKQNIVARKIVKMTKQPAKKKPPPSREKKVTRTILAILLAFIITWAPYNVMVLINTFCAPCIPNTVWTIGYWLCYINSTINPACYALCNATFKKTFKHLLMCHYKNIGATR

[8] = The peak plasma concentration after 5 hr administration (2.5 mg/kg) in monkey was determined; assay type: ADME, organism-based; parameters: dose 2.5 mg/kg; settings: cercopithecidae
[9] = The peak blood concentration after 5 hr administration (2.5 mg/kg) in dog was determined; assay type: ADME, organism-based, Canis lupus familiaris; parameters: dose 2.5 mg/kg
[10] = target: T3, Histamine H3 receptor (Homo sapiens, UniProt Q9Y5N1); assay: Affinity to bind with human cloned H3 receptor using radioligand binding assay; settings: read-out: pA2 (converted)
T3 sequence (Q9Y5N1 whole entry): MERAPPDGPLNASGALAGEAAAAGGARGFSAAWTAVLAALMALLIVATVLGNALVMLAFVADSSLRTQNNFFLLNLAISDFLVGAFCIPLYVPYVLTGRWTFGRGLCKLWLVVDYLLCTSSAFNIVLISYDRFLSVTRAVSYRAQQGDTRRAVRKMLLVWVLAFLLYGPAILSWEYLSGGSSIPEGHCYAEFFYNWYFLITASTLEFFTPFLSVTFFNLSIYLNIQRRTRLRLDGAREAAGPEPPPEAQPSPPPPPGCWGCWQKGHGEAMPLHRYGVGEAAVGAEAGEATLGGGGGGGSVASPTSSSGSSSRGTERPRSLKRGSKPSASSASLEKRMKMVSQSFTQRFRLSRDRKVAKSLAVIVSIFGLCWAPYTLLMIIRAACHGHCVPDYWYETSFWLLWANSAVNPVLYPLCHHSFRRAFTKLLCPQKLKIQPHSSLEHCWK

[11] = target: Sodium-dependent noradrenaline transporter (Homo sapiens, UniProt P23975); assay: Binding affinity towards human UPTK-NE transporter
Sequence of Sodium-dependent noradrenaline transporter (P23975 whole entry): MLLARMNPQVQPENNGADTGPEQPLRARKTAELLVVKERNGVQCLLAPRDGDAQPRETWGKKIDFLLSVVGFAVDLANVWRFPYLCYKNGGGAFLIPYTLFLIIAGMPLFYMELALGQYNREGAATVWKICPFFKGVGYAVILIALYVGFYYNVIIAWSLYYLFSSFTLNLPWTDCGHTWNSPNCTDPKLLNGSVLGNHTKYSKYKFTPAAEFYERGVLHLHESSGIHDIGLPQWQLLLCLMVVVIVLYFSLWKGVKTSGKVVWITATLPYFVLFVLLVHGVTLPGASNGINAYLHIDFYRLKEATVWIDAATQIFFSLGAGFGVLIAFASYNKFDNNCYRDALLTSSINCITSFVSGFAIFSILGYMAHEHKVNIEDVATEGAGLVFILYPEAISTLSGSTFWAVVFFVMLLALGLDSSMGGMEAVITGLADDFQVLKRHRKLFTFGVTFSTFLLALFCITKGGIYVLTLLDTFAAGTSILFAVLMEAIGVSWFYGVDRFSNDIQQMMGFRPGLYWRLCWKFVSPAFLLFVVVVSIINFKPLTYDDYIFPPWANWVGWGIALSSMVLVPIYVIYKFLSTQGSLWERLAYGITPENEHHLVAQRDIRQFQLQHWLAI

[12] = Bioavailability after oral administration (2.5 mg/kg) in monkey was determined; assay type: ADME, organism-based; settings: cercopithecidae, in vivo
[13] = target: T3, Histamine H3 receptor; assay: Binding affinity for human recombinant H3 receptor
[14] = Bioavailability after oral administration (2.5 mg/kg) in dog was determined; assay type: ADME, organism-based, Canis lupus familiaris; settings: in vivo
[15] = target: T4, Alpha-2C adrenergic receptor (Homo sapiens, UniProt P18825); assay: Binding affinity towards human Alpha-2C adrenergic receptor
T4 sequence (P18825 whole entry): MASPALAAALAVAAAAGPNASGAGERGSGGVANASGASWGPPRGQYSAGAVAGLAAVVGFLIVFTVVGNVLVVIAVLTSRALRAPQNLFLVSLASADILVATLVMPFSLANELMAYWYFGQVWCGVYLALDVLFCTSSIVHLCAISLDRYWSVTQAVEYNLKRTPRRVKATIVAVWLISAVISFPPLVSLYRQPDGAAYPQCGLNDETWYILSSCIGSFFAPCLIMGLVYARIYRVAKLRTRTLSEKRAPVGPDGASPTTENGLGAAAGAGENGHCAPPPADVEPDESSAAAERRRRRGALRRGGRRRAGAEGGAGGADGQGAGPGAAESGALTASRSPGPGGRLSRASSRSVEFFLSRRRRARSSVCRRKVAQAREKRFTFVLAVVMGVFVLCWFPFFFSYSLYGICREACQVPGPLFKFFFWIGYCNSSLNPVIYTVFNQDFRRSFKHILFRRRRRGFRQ

[16] = target: Histamine H1 receptor (Homo sapiens, UniProt P35367); assay: Binding affinity towards human histaminergic (H1) receptor
Sequence of Histamine H1 receptor (P35367 whole entry): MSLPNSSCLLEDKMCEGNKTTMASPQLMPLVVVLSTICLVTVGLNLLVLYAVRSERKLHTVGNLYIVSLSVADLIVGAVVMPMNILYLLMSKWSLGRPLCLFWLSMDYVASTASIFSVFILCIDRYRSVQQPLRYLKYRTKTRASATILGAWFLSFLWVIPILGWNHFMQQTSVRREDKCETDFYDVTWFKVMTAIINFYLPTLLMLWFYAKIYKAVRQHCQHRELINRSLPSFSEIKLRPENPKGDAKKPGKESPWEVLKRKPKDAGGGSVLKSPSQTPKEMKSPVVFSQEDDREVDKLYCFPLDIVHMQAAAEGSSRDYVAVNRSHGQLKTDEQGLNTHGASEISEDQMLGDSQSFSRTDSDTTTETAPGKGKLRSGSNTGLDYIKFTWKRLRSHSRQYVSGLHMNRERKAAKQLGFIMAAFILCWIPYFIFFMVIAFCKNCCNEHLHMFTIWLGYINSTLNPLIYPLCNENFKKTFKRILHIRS

[17] = target: Muscarinic acetylcholine receptor M3 (Homo sapiens, UniProt P20309); assay: Binding affinity towards human muscarinic M3 receptor
Sequence of Muscarinic acetylcholine receptor M3 (P20309 whole entry): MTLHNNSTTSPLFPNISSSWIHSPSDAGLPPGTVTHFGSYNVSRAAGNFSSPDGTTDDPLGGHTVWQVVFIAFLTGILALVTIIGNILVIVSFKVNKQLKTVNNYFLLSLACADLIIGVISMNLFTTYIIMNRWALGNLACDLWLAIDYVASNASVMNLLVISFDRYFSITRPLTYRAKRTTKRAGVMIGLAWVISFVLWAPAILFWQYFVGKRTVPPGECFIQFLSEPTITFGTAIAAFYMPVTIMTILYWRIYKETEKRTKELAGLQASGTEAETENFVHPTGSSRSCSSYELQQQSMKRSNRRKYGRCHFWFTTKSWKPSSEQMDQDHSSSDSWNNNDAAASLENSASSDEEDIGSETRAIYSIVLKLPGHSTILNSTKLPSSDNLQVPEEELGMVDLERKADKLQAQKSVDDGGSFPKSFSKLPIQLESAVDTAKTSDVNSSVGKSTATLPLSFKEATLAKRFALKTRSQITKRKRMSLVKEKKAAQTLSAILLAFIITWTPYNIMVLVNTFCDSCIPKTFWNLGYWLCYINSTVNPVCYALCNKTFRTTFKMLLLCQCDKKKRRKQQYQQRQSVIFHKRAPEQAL

[18] = target: Histamine H2 receptor (Homo sapiens, UniProt P25021); assay: Binding affinity towards human histaminergic (H2) receptor
Sequence of Histamine H2 receptor (P25021 whole entry): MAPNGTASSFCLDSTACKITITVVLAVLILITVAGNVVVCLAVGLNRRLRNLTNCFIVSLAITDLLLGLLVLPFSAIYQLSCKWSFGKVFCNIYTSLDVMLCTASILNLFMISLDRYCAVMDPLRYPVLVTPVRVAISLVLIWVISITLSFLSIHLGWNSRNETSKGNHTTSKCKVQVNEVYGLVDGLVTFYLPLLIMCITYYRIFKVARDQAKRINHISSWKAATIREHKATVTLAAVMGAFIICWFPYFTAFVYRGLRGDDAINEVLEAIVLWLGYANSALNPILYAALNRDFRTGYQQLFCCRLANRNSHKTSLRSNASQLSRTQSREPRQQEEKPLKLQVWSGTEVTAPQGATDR

[19] = target: T5, Muscarinic acetylcholine receptor M1 (Homo sapiens, UniProt P11229); assay: Binding affinity towards human muscarinic M1 receptor
T5 sequence (P11229 whole entry): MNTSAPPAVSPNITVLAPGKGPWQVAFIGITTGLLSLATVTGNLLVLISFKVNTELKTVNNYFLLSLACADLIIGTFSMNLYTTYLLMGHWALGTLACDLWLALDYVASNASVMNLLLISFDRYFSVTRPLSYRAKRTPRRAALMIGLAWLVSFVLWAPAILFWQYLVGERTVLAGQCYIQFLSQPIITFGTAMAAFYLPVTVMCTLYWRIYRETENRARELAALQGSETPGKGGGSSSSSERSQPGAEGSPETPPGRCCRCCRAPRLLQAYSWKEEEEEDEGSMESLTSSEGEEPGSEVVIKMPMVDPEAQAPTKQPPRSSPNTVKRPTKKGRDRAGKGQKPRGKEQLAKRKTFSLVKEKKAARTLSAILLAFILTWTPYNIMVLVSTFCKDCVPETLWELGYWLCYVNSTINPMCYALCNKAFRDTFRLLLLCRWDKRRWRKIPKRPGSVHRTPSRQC

[20] = Half life period after oral administration (2.5 mg/kg) in dog was determined; assay type: ADME, organism-based, Canis lupus familiaris; settings: in vivo
[21] = Plasma clearance after oral administration (2.5 mg/kg) in monkey was determined; assay type: ADME, organism-based; settings: cercopithecidae, read-out: Clp (converted)
[22] = target: Histamine H4 receptor (Homo sapiens, UniProt Q9H3N8); assay: Binding affinity towards human histaminergic (H4) receptor
Sequence of Histamine H4 receptor (Q9H3N8 whole entry): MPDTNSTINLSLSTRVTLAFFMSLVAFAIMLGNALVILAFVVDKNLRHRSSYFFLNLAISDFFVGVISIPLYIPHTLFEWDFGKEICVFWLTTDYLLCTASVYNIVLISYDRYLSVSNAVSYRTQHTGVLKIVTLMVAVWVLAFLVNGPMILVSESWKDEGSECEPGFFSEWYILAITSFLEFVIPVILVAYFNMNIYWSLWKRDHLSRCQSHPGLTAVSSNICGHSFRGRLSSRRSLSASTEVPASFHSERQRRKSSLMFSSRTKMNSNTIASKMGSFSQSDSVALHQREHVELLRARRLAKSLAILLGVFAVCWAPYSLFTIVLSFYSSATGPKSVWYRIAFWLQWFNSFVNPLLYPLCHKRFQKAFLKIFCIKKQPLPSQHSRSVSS

[23] = species: Cavia porcellus; assay: Compound was tested for blocked alpha-methylhistamine-induced inhibition of electrical field-stimulation induced twitch response in guinea pig ileum; assay type: functional; settings: read-out: pA2 (converted)
[24] = Half life period after oral administration (2.5 mg/kg) in monkey was determined; assay type: ADME, organism-based; settings: cercopithecidae, in vivo

Sequence of Histamine H3 receptor (Rattus norvegicus) (Q9QYN8 whole entry): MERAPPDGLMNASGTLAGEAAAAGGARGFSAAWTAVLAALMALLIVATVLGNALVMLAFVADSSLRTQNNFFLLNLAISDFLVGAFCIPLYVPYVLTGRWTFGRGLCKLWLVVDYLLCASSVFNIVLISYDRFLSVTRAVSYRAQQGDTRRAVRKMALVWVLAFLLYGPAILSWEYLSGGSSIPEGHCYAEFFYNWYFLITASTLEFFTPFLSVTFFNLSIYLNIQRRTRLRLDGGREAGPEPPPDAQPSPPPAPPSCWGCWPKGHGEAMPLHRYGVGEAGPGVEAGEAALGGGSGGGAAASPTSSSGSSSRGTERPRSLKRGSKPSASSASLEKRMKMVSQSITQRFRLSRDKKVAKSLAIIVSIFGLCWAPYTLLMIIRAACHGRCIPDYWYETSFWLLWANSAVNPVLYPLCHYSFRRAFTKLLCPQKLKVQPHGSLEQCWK
Sequence of Sodium-dependent dopamine transporter (Q01959 whole entry): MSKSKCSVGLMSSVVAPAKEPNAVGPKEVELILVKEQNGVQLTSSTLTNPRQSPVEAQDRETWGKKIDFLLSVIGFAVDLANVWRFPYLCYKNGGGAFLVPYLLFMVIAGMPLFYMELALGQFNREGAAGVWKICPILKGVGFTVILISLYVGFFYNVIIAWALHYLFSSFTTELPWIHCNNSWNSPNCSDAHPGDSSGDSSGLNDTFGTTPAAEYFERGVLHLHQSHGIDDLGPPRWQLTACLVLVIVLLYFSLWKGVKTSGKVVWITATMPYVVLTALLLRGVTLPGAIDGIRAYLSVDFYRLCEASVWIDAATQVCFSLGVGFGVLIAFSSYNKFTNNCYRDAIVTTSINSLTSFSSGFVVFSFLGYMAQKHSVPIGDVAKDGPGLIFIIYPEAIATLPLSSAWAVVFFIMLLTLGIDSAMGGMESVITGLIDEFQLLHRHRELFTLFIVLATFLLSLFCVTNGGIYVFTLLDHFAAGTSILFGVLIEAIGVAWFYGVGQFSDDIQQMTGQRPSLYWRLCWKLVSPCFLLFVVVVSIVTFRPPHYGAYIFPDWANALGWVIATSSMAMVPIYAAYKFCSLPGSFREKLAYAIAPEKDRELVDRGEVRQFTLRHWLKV

C[C@H]1CC[C@H](C)N1CCCOc1ccc(-c2ccc(C(=O)N3CCOCC3)cc2)cc1 [A-349,821]
Ki [1]: 4900 nM | pKb [2]: 9.23 | CL/F [3]: 10 mL/min/kg | Ki [4]: 9770 nM | Vbeta [5]: 7.5 L/kg | Ki [6]: 3550 nM | Ki [7]: 933 nM | Cmax [8]: 170 ng/mL | Cmax [9]: 310 ng/mL | Kb [10]: 2.14 nM | Ki [11]: 9770 nM | bioavailability [12]: 78% | Ki [13]: 0.49 nM | bioavailability [14]: 33% | Ki [15]: 1620 nM | Ki [16]: 2340 nM | Ki [17]: 1660 nM | Ki [18]: 10000 nM | Ki [19]: 1620 nM | half-life [20]: 2.6 h | CL/F [21]: 16.7 mL/min/kg | Ki [22]: 10000 nM | Kb [23]: 0.339 nM | half-life [24]: 5.3 h
